Source: article PMC8080777, “Discovery, optimization, and evaluation of non-bile acid FXR/TGR5 dual agonists” (Scientific Reports, 2021)

Tested on: GLP-1
Experiment: In vivo GLP-1 secretion after glucose challenge
Parameters: species or system C57 mice
Conditions: for Plasma GLP-1 levels: single oral 100 mg/kg, overnight-fasted C57 mice, 2 g/kg glucose one hour later, blood 15 min after challenge
Method: (§1) Measurement of GLP-1 secretion: To measure plasma GLP-1 levels, 100 mg/kg of compounds 20p and 20q were administered orally to overnight-fasted C57 mice (n = 5 animals/group). One hour later, all mice were challenged with 2 g/kg glucose, and blood samples were collected after 15 min of glucose challenge test. Plasma GLP-1 levels were measured using the GLP-1 ELISA Kit Wako, High Sensitive (FUJIFILM Wako Pure Chemical Corporation, Osaka city, Osaka, Japan)[56].
Amersham Place Little Chalfont Buckinghamshire, HP7 9NA UK), and cDNA was synthesized using ReverTra Ace qPCR RT Master Mix (Toyobo Co., Ltd., Osaka City, Osaka, Japan). Real-time PCR was performed using a CFX96 Touch Real-Time PCR Analysis System (CFX Manager, Bio-Rad, 1000 Alfred Nobel Drive, Hercules, CA, USA), and the mRNA expression levels of SHP and CYP7A1, the target gene s of FXR, were measured using the intercalator […]
In vivo assay protocol (GLP-1)
as §1, with “overnight -fasted” for “overnight-fasted”, “(n=5” for “(n = 5”, “Japan)[56].” left out
In vivo assay protocol (OGTT test)
To measure blood glucose levels, 100 mg/kg of test compounds 20p and 20q or vehicle were administered orally to overnight-fasted C57 mice (n=5 mice/group, control; n=10). One hour later, all mice were challenged with 2 g/kg glucose, and blood samples were collected after 15 min of glucose loading. The blood glucose levels were measured using LabAssay Glucose (FUJIFILM Wako Pure Chemical Corporation, Osaka City, Osaka, Japan).5
In vivo in-house animal guidelines
Study protocols were designed and refined by taking reduction of animal use into consideration. […]

Compound | Serum GLP-1 (single dose, wild-type mice) | Plasma GLP-1 levels
COC(=O)/C=C/c1cccc(N(Cc2ccc(-c3ccc(N(C)C)cc3)cc2)C(=O)C2CCCCC2)c1 [Compound 7, Fexaramine, reference compound] | did not increase serum GLP-1 | –
COc1cc(Cl)cc(N(CC23CCC(c4ccc(OC)c(C#N)c4)(CC2)CC3)C(=O)c2ccncc2C)c1 [Compound 20p] | – | significantly increased the plasma levels of GLP-1
COc1ccc(C23CCC(CN(C(=O)c4ccncc4C)c4cc(Cl)cc(Cl)c4)(CC2)CC3)cc1C#N [Compound 20q] | – | significantly increased the plasma levels of GLP-1
